Structures can show the parent of a compound that is named as a salt. Where two headings read alike, the source gives them in different places.
[1] = before exposure to heat or light
[2] = before exposure to heat or light, Hydrochloride
[3] = stress condition 45° C., Hydrochloride
[4] = stress condition 60° C., Hydrochloride
[5] = stress condition UV, Hydrochloride

Compound: CNCC[C@H](Oc1cccc2ccccc12)c1cccs1 [DULOXETINE HCI (from free base), Duloxetine Hydrochloride]
- Description [1]: White powder
- SMI (single maximum impurity) [2]: 0.05%
- Total imp [2]: 0.11%
- resistance to degradation (compared with duloxetine hydrochloride prepared by conventional prior art methods): more resistant to degradation
- Description [3]: White powder
- SMI (single maximum impurity) [3]: 0.07%
- Total imp [3]: 0.12%
- Description [4]: White powder
- SMI (single maximum impurity) [4]: 0.07%
- Total imp [4]: 0.12%
- Description [5]: Cream
- SMI (single maximum impurity) [5]: 0.06%
- Total imp [5]: 0.11%

Compound: CNCC[C@H](Oc1cccc2ccccc12)c1cccs1 [[…] (from prior art)] [Duloxetine Hydrochloride, reference compound]
- Description [1]: White powder
- SMI (single maximum impurity) [2]: 0.20%
- Total imp [2]: 0.48%
- Description [3]: Cream coloured
- SMI (single maximum impurity) [3]: 0.19%
- Total imp [3]: 0.65%
- Description [4]: Light pink
- SMI (single maximum impurity) [4]: 0.19%
- Total imp [4]: 0.70%
- Description [5]: Light brown
- SMI (single maximum impurity) [5]: 0.19%
- Total imp [5]: 0.66%
